Measurements taken from patent US11254663B2 (BRISTOL-MYERS SQUIBB COMPANY, priority 2019, dated 2022).

biological target: FXR (Homo sapiens (Human), UniProt Q96RI1); test: transient human FXR/Gal4-luciferase reporter assay; type: cell-based; conditions: Gal4-hFXR fusion construct, HEK293 reporter cells; response relative to 8 μM GW-4064
Method in brief: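 HEK293 cells stably carrying a 5×Gal4 response element–firefly luciferase reporter were transiently transfected overnight with a Gal4 DBD–human FXR LBD fusion plasmid. Compound was added in DMSO and cells were incubated overnight at 37 °C, 5% CO2. Activity was read as Steady-Glo luminescence.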

Chain of FXR (Q96RI1 262-486): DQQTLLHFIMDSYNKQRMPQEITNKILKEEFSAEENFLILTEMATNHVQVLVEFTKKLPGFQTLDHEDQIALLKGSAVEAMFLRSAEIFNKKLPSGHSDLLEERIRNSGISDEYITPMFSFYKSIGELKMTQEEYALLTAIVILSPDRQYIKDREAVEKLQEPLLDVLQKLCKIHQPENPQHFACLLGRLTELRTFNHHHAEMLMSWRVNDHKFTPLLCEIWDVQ

Row | SMILES | EC50
1 | O=C(N(CC12CCC(c3cc(C(F)(F)F)ccn3)(CC1)CC2)c1cccc(-c2ccc(NS(=O)(=O)C3CC3)cc2)c1)C12CC(F)(C1)C2 [Example 354, N-(4′-(Cyclopropanesulfonamido)-[1,1′-biphenyl]-3-yl)-3-fluoro-N-((4-(4-(trifluoromethyl)pyridin-2-yl)bicyclo[2.2.2]octan-1-yl)methyl)bicyclo[1.1.1]pentane-1-carboxamide] | 489 nM
2 | CS(=O)(=O)Nc1ccc(-c2cccc(N(CC34CCC(c5cc(C(F)(F)F)ccn5)(CC3)CC4)C(=O)C34CC(F)(C3)C4)c2)cc1 [Example 355, 3-fluoro-N-(4′-(methylsulfonamido)-[1,1′-biphenyl]-3-yl)-N-((4-(4-(trifluoromethyl)pyridin-2-yl)bicyclo[2.2.2]octan-1-yl)methyl)bicyclo[1.1.1]pentane-1-carboxamide] | 780 nM
3 | Cc1nc2ccc(-c3cccc(N(CC45CCC(c6cc(C(F)(F)F)ccn6)(CC4)CC5)C(=O)C45CC(F)(C4)C5)c3)cc2s1 [Example 356, 3-fluoro-N-(3-(2-methylbenzo[d]thiazol-6-yl)phenyl)-N-((4-(4-(trifluoromethyl)pyridin-2-yl)bicyclo[2.2.2]octan-1-yl)methyl)bicyclo[1.1.1]pentane-1-carboxamide] | 800 nM
4 | CCOc1ncc(-c2cccc(N(CC34CCC(c5nc(C(C)(C)C)no5)(CC3)CC4)C(=O)C34CC(F)(C3)C4)c2)cn1 [Example 357, N-((4-(3-(tert-butyl)-1,2,4-oxadiazol-5-yl)bicyclo[2.2.2]octan-1-yl)methyl)-N-(3-(2-ethoxypyrimidin-5-yl)phenyl)-3-fluorobicyclo[1.1.1]pentane-1-carboxamide] | 83 nM
5 | CC(C)(C)c1noc(C23CCC(CN(C(=O)C45CC(F)(C4)C5)c4cccc(-c5cnc(C6CC6)nc5)c4)(CC2)CC3)n1 [Example 358, N-((4-(3-(tert-butyl)-1,2,4-oxadiazol-5-yl)bicyclo[2.2.2]octan-1-yl)methyl)-N-(3-(2-cyclopropylpyrimidin-5-yl)phenyl)-3-fluorobicyclo[1.1.1]pentane-1-carboxamide] | 154 nM
6 | CCOc1ccc(-c2cccc(N(CC34CCC(c5nc(C(C)(C)C)no5)(CC3)CC4)C(=O)C34CC(F)(C3)C4)c2)cc1 [Example 359, N-((4-(3-(tert-butyl)-1,2,4-oxadiazol-5-yl)bicyclo[2.2.2]octan-1-yl)methyl)-N-(4′-ethoxy-[1,1′-biphenyl]-3-yl)-3-fluorobicyclo[1.1.1]pentane-1-carboxamide] | 151 nM
7 | CCOc1ccc(-c2cccc(N(CC34CCC(c5nc(C(C)(C)C)no5)(CC3)CC4)C(=O)C34CC(F)(C3)C4)c2)cn1 [Example 360, N-((4-(3-(tert-butyl)-1,2,4-oxadiazol-5-yl)bicyclo[2.2.2]octan-1-yl)methyl)-N-(3-(6-ethoxypyridin-3-yl)phenyl)-3-fluorobicyclo[1.1.1]pentane-1-carboxamide] | 147 nM
8 | CC(C)(C)c1noc(C23CCC(CN(C(=O)C45CC(F)(C4)C5)c4cccc(-c5ccc(NS(C)(=O)=O)cc5)c4)(CC2)CC3)n1 [Example 361, N-((4-(3-(tert-butyl)-1,2,4-oxadiazol-5-yl)bicyclo[2.2.2]octan-1-yl)methyl)-3-fluoro-N-(4′-(methylsulfonamido)-[1,1′-biphenyl]-3-yl)bicyclo[1.1.1]pentane-1-carboxamide] | 843 nM
9 | Cc1nc2ccc(-c3cccc(N(CC45CCC(c6nc(C(C)(C)C)no6)(CC4)CC5)C(=O)C45CC(F)(C4)C5)c3)cc2s1 [Example 362, N-((4-(3-(tert-butyl)-1,2,4-oxadiazol-5-yl)bicyclo[2.2.2]octan-1-yl)methyl)-3-fluoro-N-(3-(2-methylbenzo[d]thiazol-6-yl)phenyl)bicyclo[1.1.1]pentane-1-carboxamide] | 204 nM
10 | COc1ncc(-c2cccc(N(CC34CCC(c5nc(C(C)(C)C)no5)(CC3)CC4)C(=O)C34CC(F)(C3)C4)c2)cn1 [Example 363, N-((4-(3-(tert-butyl)-1,2,4-oxadiazol-5-yl)bicyclo[2.2.2]octan-1-yl)methyl)-3-fluoro-N-(3-(2-methoxypyrimidin-5-yl)phenyl)bicyclo[1.1.1]pentane-1-carboxamide] | 70 nM
11 | CC(C)(C)c1noc(C23CCC(CN(C(=O)C45CC(F)(C4)C5)c4cccc(-c5ccc(NS(C)(=O)=O)nc5)c4)(CC2)CC3)n1 [Example 364, N-((4-(3-(tert-butyl)-1,2,4-oxadiazol-5-yl)bicyclo[2.2.2]octan-1-yl)methyl)-3-fluoro-N-(3-(6-(methylsulfonamido)pyridin-3-yl)phenyl)bicyclo[1.1.1]pentane-1-carboxamide] | 509 nM
12 | Cc1nc2ncc(-c3cccc(N(CC45CCC(c6nc(C(C)(C)C)no6)(CC4)CC5)C(=O)C45CC(F)(C4)C5)c3)cc2s1 [Example 365, N-((4-(3-(tert-butyl)-1,2,4-oxadiazol-5-yl)bicyclo[2.2.2]octan-1-yl)methyl)-3-fluoro-N-(3-(2-methylthiazolo[4,5-b]pyridin-6-yl)phenyl)bicyclo[1.1.1]pentane-1-carboxamide] | 84 nM
13 | CC(C)(C)c1noc(C23CCC(CN(C(=O)C45CC(F)(C4)C5)c4cccc(-c5cnc(C(F)(F)F)nc5)c4)(CC2)CC3)n1 [Example 366, N-((4-(3-(tert-butyl)-1,2,4-oxadiazol-5-yl)bicyclo[2.2.2]octan-1-yl)methyl)-3-fluoro-N-(3-(2-(trifluoromethyl)pyrimidin-5-yl)phenyl)bicyclo[1.1.1]pentane-1-carboxamide] | 454 nM
14 | CC(C)(C)c1noc(C23CCC(CN(C(=O)C45CC(F)(C4)C5)c4cccc(-c5cnc(NS(C)(=O)=O)nc5)c4)(CC2)CC3)n1 [Example 367, N-((4-(3-(tert-butyl)-1,2,4-oxadiazol-5-yl)bicyclo[2.2.2]octan-1-yl)methyl)-3-fluoro-N-(3-(2-(methylsulfonamido)pyrimidin-5-yl)phenyl)bicyclo[1.1.1]pentane-1-carboxamide] | 645 nM
15 | CC(C)(C)c1noc(C23CCC(CN(C(=O)C45CC(F)(C4)C5)c4cccc(-c5ccc(OC(F)F)cc5)c4)(CC2)CC3)n1 [Example 368, N-((4-(3-(tert-butyl)-1,2,4-oxadiazol-5-yl)bicyclo[2.2.2]octan-1-yl)methyl)-N-(4′-(difluoromethoxy)-[1,1′-biphenyl]-3-yl)-3-fluorobicyclo[1.1.1]pentane-1-carboxamide] | 135 nM
16 | COc1cnc(-c2cccc(N(CC34CCC(c5nc(C(C)(C)C)no5)(CC3)CC4)C(=O)C34CC(F)(C3)C4)c2)nc1 [Example 369, N-((4-(3-(tert-butyl)-1,2,4-oxadiazol-5-yl)bicyclo[2.2.2]octan-1-yl)methyl)-3-fluoro-N-(3-(5-methoxypyrimidin-2-yl)phenyl)bicyclo[1.1.1]pentane-1-carboxamide] | 68 nM
17 | CCOc1cnc(-c2cccc(N(CC34CCC(c5nc(C(C)(C)C)no5)(CC3)CC4)C(=O)C34CC(F)(C3)C4)c2)nc1 [Example 370, N-((4-(3-(tert-butyl)-1,2,4-oxadiazol-5-yl)bicyclo[2.2.2]octan-1-yl)methyl)-N-(3-(5-ethoxypyrimidin-2-yl)phenyl)-3-fluorobicyclo[1.1.1]pentane-1-carboxamide] | 121 nM
18 | CC(C)(C)c1noc(C23CCC(CN(C(=O)C45CC(F)(C4)C5)c4cccc(-c5ncc(OC(F)F)cn5)c4)(CC2)CC3)n1 [Example 371, N-((4-(3-(tert-butyl)-1,2,4-oxadiazol-5-yl)bicyclo[2.2.2]octan-1-yl)methyl)-N-(3-(5-(difluoromethoxy)pyrimidin-2-yl)phenyl)-3-fluorobicyclo[1.1.1]pentane-1-carboxamide] | 45 nM
19 | CC(C)(C)c1noc(C23CCC(CN(C(=O)C45CC(F)(C4)C5)c4cccc(-c5ccc(NS(=O)(=O)C(F)(F)F)cc5)c4)(CC2)CC3)n1 [Example 372, N-((4-(3-(tert-butyl)-1,2,4-oxadiazol-5-yl)bicyclo[2.2.2]octan-1-yl)methyl)-3-fluoro-N-(4′-((trifluoromethyl)sulfonamido)-[1,1′-biphenyl]-3-yl)bicyclo[1.1.1]pentane-1-carboxamide] | 131 nM
20 | CC(C)(C)c1noc(C23CCC(CN(C(=O)C45CC(F)(C4)C5)c4cccc(-c5ccc(OC(F)F)cn5)c4)(CC2)CC3)n1 [Example 373, N-((4-(3-(tert-butyl)-1,2,4-oxadiazol-5-yl)bicyclo[2.2.2]octan-1-yl)methyl)-N-(3-(5-(difluoromethoxy)pyridin-2-yl)phenyl)-3-fluorobicyclo[1.1.1]pentane-1-carboxamide] | 88 nM
21 | CCOc1ncc(-c2cccc(N(CC34CCC(c5nc(C(C)C)no5)(CC3)CC4)C(=O)C34CC(F)(C3)C4)c2)cn1 [Example 374, N-(3-(2-ethoxypyrimidin-5-yl)phenyl)-3-fluoro-N-((4-(3-isopropyl-1,2,4-oxadiazol-5-yl)bicyclo[2.2.2]octan-1-yl)methyl)bicyclo[1.1.1]pentane-1-carboxamide] | 44 nM
22 | CCOc1ccc(-c2cccc(N(CC34CCC(c5nc(C(C)C)no5)(CC3)CC4)C(=O)C34CC(F)(C3)C4)c2)cc1 [Example 375, N-(4′-ethoxy-[1,1′-biphenyl]-3-yl)-3-fluoro-N-((4-(3-isopropyl-1,2,4-oxadiazol-5-yl)bicyclo[2.2.2]octan-1-yl)methyl)bicyclo[1.1.1]pentane-1-carboxamide] | 61 nM
23 | CC(C)c1noc(C23CCC(CN(C(=O)C45CC(F)(C4)C5)c4cccc(-c5ccc(NS(C)(=O)=O)cc5)c4)(CC2)CC3)n1 [Example 376, 3-fluoro-N-((4-(3-isopropyl-1,2,4-oxadiazol-5-yl)bicyclo[2.2.2]octan-1-yl)methyl)-N-(4′-(methylsulfonamido)-[1,1′-biphenyl]-3-yl)bicyclo[1.1.1]pentane-1-carboxamide] | 32 nM
24 | COc1ccc(-c2cccc(N(CC34CCC(c5nc(C(C)C)no5)(CC3)CC4)C(=O)C34CC(F)(C3)C4)c2)cc1 [Example 377, 3-fluoro-N-((4-(3-isopropyl-1,2,4-oxadiazol-5-yl)bicyclo[2.2.2]octan-1-yl)methyl)-N-(4′-methoxy-[1,1′-biphenyl]-3-yl)bicyclo[1.1.1]pentane-1-carboxamide] | 52 nM
